Measurements as given in PubChem BioAssay AID464 (The Scripps Research Institute Molecular Screening Center, 2006).
The source made the active and inactive calls.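 Rule for the calls: active = Compounds that kill half the cells at a concentration of 5 micromolar or below, from the fitted or estimated CC50; inactive = CC50 above 5 micromolar.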

Test system: Jurkat E6.1 viability, ATP luminescence, 48 h
Assay: Jurkat E6.1 cell cytotoxicity, CC50 determination, dose response, cytotoxicity control, ATP luminescence, 48 h, 60K MLSMR (AID 464)

## CC(=O)c1c(N2CCN(Cc3ccccc3)CC2)[nH]c(-c2ccccc2)nc1=S
  CC50: > 40 µM (inactive)

## COc1cc(C2C3=C(Nc4ncnn42)c2ccccc2CC3)cc(OC)c1OC (stereo not given)
  CC50: 3.67 µM

## Nc1nc(-c2ccccc2)cc(N2CCCCC2)n1
  CC50: 0.877 µM

## CCOC(=O)N1CCN(C(=O)c2cc(-c3ccc(OCC)cc3)nc3ccccc23)CC1
  CC50: 1.69 µM

## Cc1ccc(-c2csc3ncnc(Sc4nnc(CN5CCCCCC5=O)o4)c23)cc1
  CC50: 5.28 µM (inactive)

## Cc1cc(NC(=O)CCS(=O)(=O)c2nc(-c3ccccc3)cc(C(F)(F)F)n2)no1
  CC50: 5.13 µM (inactive)

## O=C(C1CC1)N1CCC(c2nc(-c3ccc(S(=O)(=O)NCC4CCCO4)cc3)no2)CC1 (stereo not given)
  CC50: 9.95 µM (inactive)

## CC(=O)NC(c1ccco1)c1ccc2cccnc2c1O (stereo not given)
  CC50: 3.65 µM

## Cc1ccc(O)c(NC(=O)CCC2CCCCC2)c1
  CC50: 6 µM (inactive)

## COc1ccc(CC(=O)Nc2cccc(-c3nnc(-c4cccc(C)c4)o3)c2)cc1OC
  CC50: 7.1 µM (inactive)

## Cn1nc(CC(=O)Nc2ccc(N3CCN(C(=O)OC(C)(C)C)CC3)cc2)c2ccccc2c1=O
  CC50: > 13 µM (inactive)

## CCCCOc1ncnc2c1[nH]c1ccccc12
  CC50: 5.71 µM (inactive)

## CCOc1ccc(-c2[nH]ncc2-c2ccc(OC)c(OC)c2)c(O)c1
  CC50: 1.21 µM

## COc1ccc(NS(=O)(=O)c2cc(C)ccc2NC(=O)c2cc(C)oc2C)cc1
  CC50: 0.191 µM

## COc1cccc(-c2cc(C(=O)Nc3cccc(O)c3)no2)c1
  CC50: > 40 µM (inactive)

## N#Cc1nc(N2CCCCC2)nc(N2CCOCC2)n1
  CC50: 12.9 µM (inactive)

## Cc1cc(C(=O)N2CCN(c3cccc(Cl)c3)CC2)c(C)o1
  CC50: 4.95 µM

## CCn1nc(-c2cccs2)nc2c(=O)n(C)c(=O)nc1-2
  CC50: > 40 µM (inactive)

## CS(=O)c1nc(-c2ccc(Br)cc2)cc(-c2ccccc2)c1C#N (stereo not given)
  CC50: 0.631 µM

## O=C(NCc1cccnc1)NC1(C(F)(F)F)Oc2ccc(Cl)cc2O1 (stereo not given)
  CC50: 8.08 µM (inactive)

## CC(C)C(=O)Nc1ccc(C(=O)NCc2cccnc2)cc1
  CC50: 3.87 µM

## Cc1nn(-c2ccccc2)c(C)c1C(=O)Nc1nnc(-c2ccco2)o1
  CC50: > 40 µM (inactive)

## CCSc1nnc(NC(=O)c2ccccn2)s1
  CC50: 8.3 µM (inactive)

## CCOC(=O)c1c(-c2ccc(C)cc2C)csc1NC(=O)CSc1nnnn1C
  CC50: 35 µM (inactive)

## CCCCCCn1c(NCC)nc2c1c(=O)n(C)c(=O)n2C
  CC50: 2.83 µM

## O=C(NCC(c1cccs1)N1CCOCC1)c1ccc(Cl)s1 (stereo not given)
  CC50: 0.882 µM

## O=C(C1CCN(S(=O)(=O)c2cccc3cccnc23)CC1)N1CCN(c2ccc(Cl)cc2)CC1
  CC50: 19.5 µM (inactive)

## CCOC(=O)C1CCN(CC(=O)Nc2c(C(=O)OC)[nH]c3ccc(Cl)cc23)CC1
  CC50: 31.2 µM (inactive)

## COC(=O)c1ccccc1NC(=O)Cn1c(-c2nonc2N)nc2ccccc21
  CC50: 0.245 µM

## COc1cc(NS(=O)(=O)c2ccc(NC(C)=O)cc2)cc(OC)c1
  CC50: 14.8 µM (inactive)

## Oc1ccc(N=Cc2ccc(O)c(O)c2)cc1
  CC50: 25.9 µM (inactive)

## OC1(c2cccc(C(F)(F)F)c2)CCN(c2ncnc3c2[nH]c2ccc(F)cc23)CC1
  CC50: 14.4 µM (inactive)

## Cn1nc(-c2ccc(OCC(=O)N3CCN(Cc4ccccc4)CC3)cc2)c2ccccc2c1=O
  CC50: 9.14 µM (inactive)

## CCc1cc2c(=O)n(Cc3ccco3)c(SCc3c(C)noc3C)nc2s1
  CC50: 4.4 µM

## CCCCn1c(CN(C)Cc2ccccc2)nc2c1c(=O)n(C)c(=O)n2C
  CC50: 14.8 µM (inactive)

## CCC1CCCCN1S(=O)(=O)c1ccc(C(=O)Nc2nnc(-c3cccs3)o2)cc1 (stereo not given)
  CC50: 11.6 µM (inactive)

## COc1ccccc1-c1nnc2sc(-c3ccc(N(C)C)cc3)nn12
  CC50: 0.0343 µM

## c1ccc2c(CCNc3ncnc4nc[nH]c34)c[nH]c2c1
  CC50: 3.85 µM

## COc1ccccc1C(=O)N1CCN(c2cccc(C(F)(F)F)c2)CC1
  CC50: 2.09 µM

## COc1ccccc1-c1nnc(Nc2nc3c(OC)cccc3s2)o1
  CC50: 0.664 µM

## COc1ccc(OC)c(C(C)NC(=O)c2ccco2)c1 (stereo not given)
  CC50: 6.24 µM (inactive)

## Cc1ccccc1S(=O)(=O)Cc1ccc(C(=O)N2CCN(c3cccc(C)c3C)CC2)o1
  CC50: 2.27 µM

## COC(=O)c1ccc(C)c(NS(=O)(=O)c2ccc3c(c2)OCCO3)c1
  CC50: 0.504 µM

## COc1ccc(CC(=O)Nc2cccc(-c3nnc(-c4ccccc4)o3)c2)cc1OC
  CC50: 15.8 µM (inactive)

## CCN(C)c1ccc(/C=N\n2nnnc2N)cc1
  CC50: 4.71 µM

## Cc1cc(NC(=O)CSc2nc(-c3ccco3)cc(C(F)(F)F)n2)n(-c2ccccc2)n1
  CC50: 4.28 µM

## Cc1cc(NC(=O)c2cc(-c3ccncc3)nc3c(C)cccc23)no1
  CC50: 2.29 µM

## O=C(Nc1nc(-c2ccccc2)cs1)C1CCCN(S(=O)(=O)c2ccccc2)C1 (stereo not given)
  CC50: 20.9 µM (inactive)

## C(=C\c1ccccc1)/CSc1nnc(-c2ccccn2)n1Cc1ccco1
  CC50: 2.28 µM

## COc1ccc(C2CC(c3c(O)cc(C)oc3=O)=NCCS2)c(OC)c1 (stereo not given)
  CC50: 0.318 µM

## CS(=O)(=O)N1CCc2cc(-c3csc(NC(=O)Cc4cccs4)n3)ccc21
  CC50: 19.1 µM (inactive)

## COc1cc(C2Nc3ccc4ncccc4c3C3=C2C(=O)CCC3)cc(OC)c1O (stereo not given)
  CC50: 6.15 µM (inactive)

## COc1ccc2nc(NC(=O)c3cccc(OCc4c(C)noc4C)c3)sc2c1
  CC50: 1.6 µM

## CC1=CC(C)(C)Nc2ccc(OC(=O)c3ccco3)cc21
  CC50: 4.78 µM

## Cc1oc(-c2ccc(Cl)cc2)nc1CN1CCCC(C(=O)N2CCN(C(=O)c3ccco3)CC2)C1 (stereo not given)
  CC50: 2.07 µM

## COc1ccc(-c2nnnn2-c2ccccc2OC)cc1
  CC50: 8.67 µM (inactive)

## COc1ccc(-c2cc(N)n(S(=O)(=O)c3c(F)c(F)c(F)c(F)c3F)n2)cc1OC
  CC50: 2.01 µM

## O=C(CCNc1ccc(F)c(Cl)c1)c1ccco1
  CC50: > 13 µM (inactive)

## COc1ccccc1-c1cc(C(=O)Nc2cc(C)nn2-c2ccccc2)no1
  CC50: 6.14 µM (inactive)

## Cn1cc(C(=O)c2ccc(Cl)cc2)cc1-c1nc2ccccc2n1C
  CC50: 23.3 µM (inactive)

## CCCn1c(NC(=O)c2cccc(S(=O)(=O)N3CCCC3)c2)nc2ccccc21
  CC50: > 40 µM (inactive)

## CCOc1ccc(Cl)cc1S(=O)(=O)n1cnc2ccccc21
  CC50: 14.8 µM (inactive)

## CC(=O)c1c(C)[nH]c(C(=O)OCCCCN2C(=O)c3ccccc3C2=O)c1C
  CC50: > 40 µM (inactive)

## O=C(NCCSc1c[nH]c2ccccc12)c1ccc(Br)o1
  CC50: > 40 µM (inactive)

## O=c1cc(-c2ccccc2)[nH]c2nc3ccccc3n12
  CC50: 9.38 µM (inactive)

## O=C(c1ccco1)N1CCN(C(=O)N2c3ccccc3Sc3ccccc32)CC1
  CC50: 0.099 µM

## COc1ccccc1N1CCN(C(=O)CSc2nnc3n2C(C)(C)Cc2ccccc2-3)CC1
  CC50: 4.67 µM

## CCCCCCn1c2c(c(=N)c3c1CCC3)CCC2
  CC50: 0.482 µM

## CCC/C(O)=C1\C(=O)CC(C)(C)CC1=Nc1ccc(OC)cc1OC
  CC50: 1.78 µM

## CC(=O)CC1OC(=O)C(Br)=C1NCc1ccccc1 (stereo not given)
  CC50: 3.91 µM

## CC1CC(C)CN(S(=O)(=O)c2ccc(C(=O)NCCCn3ccnc3)cc2)C1 (stereo not given)
  CC50: 1.08 µM

## Cc1cc(C)cc(NS(=O)(=O)c2ccc3[nH]cc(C(=O)NCc4ccco4)c(=O)c3c2)c1
  CC50: 5.48 µM (inactive)

## O=C(Cn1cnc2sc(-c3ccccc3)cc2c1=O)NCc1ccco1
  CC50: 6 µM (inactive)

## CCOC(=O)N1CCN(c2c(NCc3cccs3)c(=O)c2=O)CC1
  CC50: 5.79 µM (inactive)

## COc1cc2c(cc1OC)C(C)N(C(=O)c1cc3ccccc3o1)CC2 (stereo not given)
  CC50: 24.4 µM (inactive)
